From patent US9360486B2, “Allergen fragments” (Biomay AG, priority 2007, dated 2016) come the findings set out here.

The test system of the experiment is Amb a 1-specific T cell lines (TCL). Briefly: T cell epitope mapping of Amb a 1.3: proliferation (3H-thymidine uptake) of TCL stimulated with synthetic peptides. The experiment is classed as cell-based, human. To be noted: for No. positive patients SI > 3 / No. positive patients SI > 5 / % (positive patients SI > 3) / % (positive patients SI > 5): TCL from 48 ragweed pollen-allergic patients, peptide 5 μg/ml; for No. positive patients SI > 3 / No. positive patients SI > 5: 3H-thymidine uptake after 48 hrs; for No. positive patients SI > 3 / % (positive patients SI > 3): stimulation index > 3; for No. positive patients SI > 5 / % (positive patients SI > 5): stimulation index > 5; for T cell activating region recognized by % of patients: classes of prevalence referring to SI>5, 48 TCL. The text has this:
The T cell response to Amb a 1 was characterized in detail using the established in vitro culture system (Jahn-Schmid et al., J. Immunol. 169: 6005-11, 2002; Jahn-Schmid et al., J. Allergy Clin. Immunol., 115: 399-404, 2005). In total, 85 clinically well-defined patients (75 from Vienna/10 from Milano) with typical case history, positive skin prick test and CAP/RAST tests for ragweed extract were included.
Peripheral blood mononuclear cells (PBMC) were isolated from heparinized blood of allergic patients by Ficoll density gradient centrifugation. To generate allergen-specific T cell lines (TCL) and T cell clones (TCC), 1.5×10^6 PBMC were stimulated with optimal doses of ragweed or mugwort extract (4 μg/ml) or rAmb a 1.3 (10 μg/ml) in 24-well flat-bottomed culture plates (Costar, USA). After 5 days human rIL-2 (10 U/ml, Boehringer, Mannheim, Germany) were added and cultures were continued for additional 7 days. Then, T cell blasts were isolated by density centrifugation. The majority of T cell blasts was further expanded with IL-2 and irradiated PBMC. A small number of T cell blasts were used to establish monoclonal T cell cultures by limiting dilution: 0.3 T cells/well were seeded into 96 well round bottom plates (Nunclone) in the presence of 2×10^5 irradiated (60 Gy) PBMC, 0.25% v/v PHA (Gibco, USA) and rIL-2 (4 U/well) in the medium mentioned above. After 14-21 days, growing microcultures were expanded at weekly intervals with irradiated PBMC and rIL-2. The specificity of TCC was assessed in proliferation assays using irradiated allogeneic or HLA-matched PBMC or irradiated EBV-transformed allogeneic B-cells and 5 μg/ml Amb a 1.3. After 48 hours, cellular uptake of tritiated (^3H)-thymidine was performed to measure proliferation in counts per minute (cpm). When the stimulation index (SI; ratio between cpm obtained in cultures containing TCC plus autologous APC plus antigen, and cpm obtained in cultures containing TCC and APC alone) was >10, responses were considered as positive. Allergen-specific TCC were expanded by alternating turns of stimulation with autologous irradiated APC and allergen or with allogeneic feeder cells and rIL-2.
Amb a 1-specific TCL and TCC were used to identify T cell epitopes of Amb a 1.3. T cell cultures were stimulated with a panel of 121 synthetic 12-mer peptides and one 13-mer representing the C-terminal peptide of Amb a 1.3 (Pepset, Biotrend, Germany). Peptides had been synthesized according to the Amb a 1.3 amino acid sequence and overlapped for 9 amino acid residues with the neighbouring peptides (Table 1). Peptides were used at a concentration of 5 μg/ml for stimulation and proliferation of T cell cultures was determined after 48 hrs by ^3H-thymidine-uptake. Because of the frequently observed high background caused by auto-reactivity in TCL, the mean of the cpm observed with the ten least stimulating peptides (none of the peptides was toxic) was used as negative control in calculations of SI. Throughout this manuscript, a peptide comprised one T cell epitope when the stimulation index was at least 3.0.
T cell epitope mapping of Amb a 1.3 was performed evaluating 48 TCL from different patients ([…]), which had been initiated with ragweed extract (containing the natural allergen) or rAmb a 1.3 (Table 2). TCL induced with either ragweed extract or rAmb a 1.3 from the same individual recognized similar T cell epitopes (Table 2; FIG. 7). […] Therefore, their data were combined for further analysis (Table 3). Typical for many inhalant allergens, multiple T cell activating regions were detected in Amb a 1.3. The number of peptides recognized by T cells from a single individual ranged from 2 to maximum 60 peptides with a mean of 17.8 peptides (median=16/for SI>3; resp. 0-36/11.9/12 for SI>5) (see Table 3). In total, 26 relevant (i.e. recognized by ≧10% of patients studied) T cell activating regions comprising 12-18 aa were identified. […]

Turning to “LARTGTGAAESM (Amb a 1 fragment) [Peptide 101]”, the “reactivity with T cells isolated from allergic individuals” value (shortened to “reactivity with T cells isolated”) is on record as “reactivity with T cells”, the “No. positive patients SI > 3” value amounted to 10, the “No. positive patients SI > 5” value amounted to 7 and the “% (positive patients SI > 3)” value is on record as 20.8%. The “% (positive patients SI > 5)” value stood at 14.6%.
In the same order, the values of “NGAIFVTSGSDP (Amb a 1 fragment) [Peptide 109]” are “reactivity with T cells”, 12, 9, 25.0% and 18.8%.
As to “PVQSAGMIPAEPGEA (Amb a 1 fragment) [Peptide 114-115]”, the “reactivity with T cells isolated” value is given as “reactivity with T cells” and the “T cell activating region recognized by % of patients” value is given as “recognized by 35.4%”.
In the case of “NIIDKCWRGKAD (Amb a 1 fragment) [Peptide 9]”, the “No. positive patients SI > 3” value is on record as 3, the “No. positive patients SI > 5” value is 2, the “% (positive patients SI > 3)” value came to 6.3% and the “% (positive patients SI > 5)” value is 4.2%.
Regarding “TDNVDQRMPRCR (Amb a 1 fragment) [Peptide 82]”, the “No. positive patients SI > 3” value came to 3, the “No. positive patients SI > 5” value is on record as 2, the “% (positive patients SI > 3)” value stood at 6.3% and the “% (positive patients SI > 5)” value was determined as 4.2%.
Regarding “VTLGSTHVTISN (Amb a 1 fragment) [Peptide 67]”, the “reactivity with T cells isolated” value was “reactivity with T cells”, the “No. positive patients SI > 3” value worked out at 6, the “No. positive patients SI > 5” value is 2 and the “% (positive patients SI > 3)” value was 12.5%. Besides, the “% (positive patients SI > 5)” value is on record as 4.2%.
Turning to “SDGDTINVAGSS (Amb a 1 fragment) [Peptide 57]”, the “No. positive patients SI > 3” value amounted to 0, the “No. positive patients SI > 5” value is 0, the “% (positive patients SI > 3)” value amounted to 0.0% and the “% (positive patients SI > 5)” value stood at 0.0%.
Regarding “LVDVTLGSTHVT (Amb a 1 fragment) [Peptide 66]”, the “No. positive patients SI > 3” value stood at 4, the “No. positive patients SI > 5” value stood at 4, the “% (positive patients SI > 3)” value is 8.3% and the “% (positive patients SI > 5)” value turned out to be 8.3%.
Turning to “AIKLTSSAGVLSCRP (Amb a 1 fragment) [Peptide 119-120]”, the “reactivity with T cells isolated” value was “reactivity with T cells”.
Consider “IIFKNDMVINLN (Amb a 1 fragment) [Peptide 32]”, for which the “No. positive patients SI > 3” value stood at 2, the “No. positive patients SI > 5” value came out at 1, the “% (positive patients SI > 3)” value is reported as 4.2% and the “% (positive patients SI > 5)” value worked out at 2.1%.
In the same order, the values of “TYGGKWGDVYTV (Amb a 1 fragment) [Peptide 19]” are 2, 0, 4.2% and 0.0%.
In the same order, the values of “NRQALADCAQGF (Amb a 1 fragment) [Peptide 14]” are 4, 0, 8.3% and 0.0%.
On to “GSTHVTISNCKF (Amb a 1 fragment) [Peptide 68]”, for which the “T cell reactivity with samples from individuals suffering from ragweed pollen allergy” value (shortened to “T cell reactivity with samples”) is listed as “high T cell reactivity”, the “reactivity with T cells isolated” value is recorded as “reactivity with T cells”, the “No. positive patients SI > 3” value came to 20 and the “No. positive patients SI > 5” value is listed as 16. The “% (positive patients SI > 3)” value came to 41.7%, the “% (positive patients SI > 5)” value turned out to be 33.3% and the “T cell activating region recognized by % of patients” value is “recognized by 33.3%”.
For “GKWGDVYTVTSN (Amb a 1 fragment) [Peptide 20]”, the “reactivity with T cells isolated” value is reported as “reactivity with T cells”, the “No. positive patients SI > 3” value is 9, the “No. positive patients SI > 5” value is on record as 7 and the “% (positive patients SI > 3)” value is listed as 18.8%. For the same sequence, the “% (positive patients SI > 5)” value stood at 14.6% and the “T cell activating region recognized by % of patients” value is “recognized by 14.6%”.
Turning to “MNVKNIIIHNIN (Amb a 1 fragment) [Peptide 45]”, the “No. positive patients SI > 3” value worked out at 2, the “No. positive patients SI > 5” value worked out at 0, the “% (positive patients SI > 3)” value is listed as 4.2% and the “% (positive patients SI > 5)” value turned out to be 0.0%.
Regarding “FGFFQVVNNNYD (Amb a 1 fragment) [Peptide 86]”, the “T cell reactivity with samples” value is “high T cell reactivity”, the “reactivity with T cells isolated” value was “reactivity with T cells”, the “No. positive patients SI > 3” value worked out at 12 and the “No. positive patients SI > 5” value is 10. In addition, the “% (positive patients SI > 3)” value is 25.0%, the “% (positive patients SI > 5)” value turned out to be 20.8% and the “T cell activating region recognized by % of patients” value is “recognized by 20.6%”.
Turning to “QGFAKGTYGGKW (Amb a 1 fragment) [Peptide 17]”, the “No. positive patients SI > 3” value turned out to be 2, the “No. positive patients SI > 5” value was found to be 1, the “% (positive patients SI > 3)” value is reported as 4.2% and the “% (positive patients SI > 5)” value amounted to 2.1%.
As for “LRFAAAQNRPLW (Amb a 1 fragment) [Peptide 28]”, the “reactivity with T cells isolated” value was “reactivity with T cells”, the “No. positive patients SI > 3” value turned out to be 15, the “No. positive patients SI > 5” value was 11 and the “% (positive patients SI > 3)” value is recorded as 31.3%. The “% (positive patients SI > 5)” value is listed as 22.9%.
“QELVVNSDKTIDGRG (Amb a 1 fragment) [Peptide 36-37]”: the “reactivity with T cells isolated” value is on record as “reactivity with T cells” and the “T cell activating region recognized by % of patients” value is reported as “recognized by 25.0%”.
“NETRSLQACEAY (Amb a 1 fragment) [Peptide 5]”: the “No. positive patients SI > 3” value is 4, the “No. positive patients SI > 5” value was 0, the “% (positive patients SI > 3)” value came out at 8.3% and the “% (positive patients SI > 5)” value is 0.0%.
Consider “RWGTYAIGGSSA (Amb a 1 fragment) [Peptide 90]”, for which the “reactivity with T cells isolated” value was “reactivity with T cells”, the “No. positive patients SI > 3” value is reported as 5, the “No. positive patients SI > 5” value stood at 3 and the “% (positive patients SI > 3)” value was found to be 10.4%. In addition, the “% (positive patients SI > 5)” value is reported as 6.3%.
“GMIKSNDGPPIL (Amb a 1 fragment) [Peptide 52]”: the “T cell reactivity with samples” value is given as “high T cell reactivity”, the “reactivity with T cells isolated” value is reported as “reactivity with T cells”, the “No. positive patients SI > 3” value is on record as 31 and the “No. positive patients SI > 5” value worked out at 27. Also, the “% (positive patients SI > 3)” value is reported as 64.6%, the “% (positive patients SI > 5)” value was determined as 56.3% and the “T cell activating region recognized by % of patients” value was “recognized by 56.3%”.
As to “KNIIIHNINIHDVKVLPG (Amb a 1 fragment) [Peptide 46-48]”, the “reactivity with T cells isolated” value is listed as “reactivity with T cells” and the “T cell activating region recognized by % of patients” value is listed as “recognized by 20.8%”.
